Results taken from patent EP4775208A1, “USE OF PRMT5 INHIBITOR IN TREATMENT OF TUMORS OR CANCERS” (Apeiron Therapeutics (Hong Kong) Ltd., priority 2023, dated 2025).

Target: hERG ion channel (Homo sapiens, UniProt Q12809)
Test: hERG ion channel inhibition experiment (manual patch clamp, HEK293)
Format: cell-based
Conditions: HEK293 cells stably expressing hERG, n=2
Method: III. hERG Ion Channel Inhibition Experiment
The compounds used in this experiment are specific embodiments of the present invention, with reference to compound AMG473 as an example from Amgen's patent WO 2022/169948A1, identified as example 473.
2. Cell Line and Cell Culture
Stably expressing hERG ion channel HEK293 cell line (Catalog: K1236) was purchased from Invitrogen. This cell line was cultured in a medium containing 85% DMEM, 10% dialyzed fetal bovine serum, 0.1 mM non-essential amino acid solution, 100 U/mL penicillin-streptomycin solution, 25 mM HEPES, 5 µg/mL blasticidin, and 400 µg/mL geneticin. […]
• 1) Place glass slides containing HEK293 cells in the perfusion chamber of the micro-manipulation station. • 2) Under an Olympus IX71 or IX73 inverted microscope, position suitable cells in the central field of view using a ×10 objective. […] The peak of the tail current represents the size of the hERG current. • 9) The hERG current induced by the test compound is continuously recorded for 120 seconds before administration to assess the stability of the tested cells in producing hERG currents. […] Record the last 5 hERG current values after the recorded current stabilizes, and take their average as the final current value at a specific concentration. […]

Chain of hERG ion channel (Q12809 whole entry): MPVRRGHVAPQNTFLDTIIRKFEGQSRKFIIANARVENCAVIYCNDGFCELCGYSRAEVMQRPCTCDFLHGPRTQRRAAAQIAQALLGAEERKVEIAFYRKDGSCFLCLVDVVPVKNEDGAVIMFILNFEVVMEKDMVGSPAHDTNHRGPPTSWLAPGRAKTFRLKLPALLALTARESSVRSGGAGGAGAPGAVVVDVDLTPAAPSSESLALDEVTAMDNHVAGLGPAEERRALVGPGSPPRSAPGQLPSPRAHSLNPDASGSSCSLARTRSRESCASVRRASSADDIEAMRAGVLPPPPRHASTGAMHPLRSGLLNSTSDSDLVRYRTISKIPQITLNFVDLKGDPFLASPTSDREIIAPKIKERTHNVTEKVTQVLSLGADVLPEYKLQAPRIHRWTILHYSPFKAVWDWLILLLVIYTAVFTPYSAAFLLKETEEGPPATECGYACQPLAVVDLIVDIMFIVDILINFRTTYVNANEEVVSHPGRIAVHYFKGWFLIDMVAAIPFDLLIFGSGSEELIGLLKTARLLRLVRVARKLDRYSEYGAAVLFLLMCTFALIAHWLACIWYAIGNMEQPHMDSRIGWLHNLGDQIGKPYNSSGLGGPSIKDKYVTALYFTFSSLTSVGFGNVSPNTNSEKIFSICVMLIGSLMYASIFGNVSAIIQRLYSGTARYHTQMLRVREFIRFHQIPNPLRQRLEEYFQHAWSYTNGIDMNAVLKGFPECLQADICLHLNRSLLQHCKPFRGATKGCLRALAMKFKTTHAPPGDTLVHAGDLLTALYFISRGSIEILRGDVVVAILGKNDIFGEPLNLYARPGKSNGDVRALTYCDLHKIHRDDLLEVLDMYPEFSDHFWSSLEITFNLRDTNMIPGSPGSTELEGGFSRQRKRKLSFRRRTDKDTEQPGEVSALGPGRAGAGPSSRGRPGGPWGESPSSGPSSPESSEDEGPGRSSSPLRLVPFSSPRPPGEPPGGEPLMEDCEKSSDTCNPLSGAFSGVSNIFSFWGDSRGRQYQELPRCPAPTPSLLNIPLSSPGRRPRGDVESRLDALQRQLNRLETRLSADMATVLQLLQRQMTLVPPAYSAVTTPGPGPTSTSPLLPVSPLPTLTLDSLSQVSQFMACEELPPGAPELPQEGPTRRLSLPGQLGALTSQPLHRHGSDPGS

With “(S)-4-amino-7-fluoro-N-methyl-N-(6-(triflu oromethyl)-2,3-dihydr obenzofuran-3-yl)imi dazo[1,5-a]quinoxalin e-8-carboxamide [Example 29]” as the substance, how does the IC50 read?
Its IC50 is 11.4 µM.
